Experimental findings from paper PMC12584752, “Covalent fragment screening to inhibit the E3 ligase activity of bacterial NEL enzymes SspH1 and SspH2” (RSC Chemical Biology, 2025) are described below.

Holding throughout (type): binding
One test addresses T1, SspH2 (aa 166–783) (Salmonella typhimurium, UniProt D0ZPH9).
T1 construct: Recombinant SspH1 (aa 161–700) and SspH2 (aa 166–783) were both characterised; His-tag (N, cleaved yes); made in house; host or cells: E. coli BL21
Kind of test: Full kinetics characterisation of covalent labelling by intact LC-MS. The settings on record: for fold higher kinact/KI with SspH2 than SspH1: SspH2 versus SspH1. The method, then: (§1) Fig. 3 Validation of HTC hit compounds by intact MS. Labelling heatmaps of dilution series (100–6.25 μM) of compounds 4–10 with (A) WT SspH1 and (B) C492K SspH1. Labelling heatmaps of dilution series of (C) compound 6 and (D) compound 7 with bacterial and human ubiquitin binding proteins. Recombinant proteins were incubated at either 1.0 or 0.5 μM with 50 μM fragments for 24 hours at 4 °C, before fragment labelling was analysed by intact LC-MS. Bacterial proteins are shown in bold and human proteins in italic fonts. (E)–(H) Kinetics analyses: time courses (0–12 hours) of compound labelling (100–1.56 μM) of SspH1 and SspH2 (0.5 μM) for (E) SspH1 and compound 7, and (F) SspH2 and compound 6. Measurements were performed in technical triplicates. Labelling percentages were plotted against time in GraphPad Prism v.10, and curves fitted separately for each replicate using one-phase association, with constraints Y0 = 0 and plateau = highest labelling percentage. Graphs for SspH1 and compound 6, and SspH2 and compound 7 are shown in Fig. S4A and B. Rate constants (kobs, as given by Graphpad Prism calculated K values) were plotted against fragment concentration in triplicate for (G) SspH1 and (H) SspH2. Straight lines were fitted with constraint Yintercept = 0. For SspH2 kinetics, 100 μM kobs was outside the linear range.
(§2) To further understand and compare the labelling of SspH1 and SspH2, we performed a full kinetic analysis of compounds 6 and 7 with both proteins (Fig. 3E–H and Fig. S4A, B). […] Up to a maximum test concentration of 100 μM, the kobsvs. concentration plot was linear for SspH1 so it was not possible to derive individual values of kinact and KI. For SspH2, the relationship was also linear up to 50 μM so it was still only possible to reliably calculate kinact/KI. Nonetheless, we can infer from these plots KI values (SspH1) >100 μM and KI values […] for compounds 6 and 7. From these lower bounds on KI it is clear that the range of ligand efficiencies reflecting the reversible binding interactions with SspH1 and 2 are low (0.19–0.21) and may hint at a challenging binding site for optimising a small molecule inhibitor. Identification of alternative hit series and/or X-ray crystallography would be expected to yield further insight into this putative small molecule binding site. […] At present we don’t understand the molecular basis for the increased reactivity of SspH2 over SspH1, and can only speculate that subtle differences in the active site environment render the catalytic cysteine more reactive.
(§3) Recombinant SspH1 (aa 161–700) and SspH2 (aa 166–783) were both characterised against compounds 6 and 7. A dilution series in DMSO was prepared for the compound, and 1 μL added to three separate wells in a 384 well plate, representing technical triplicates of each condition. 99 μL of 0.5 μM SspH1 or SspH2 in 25 mM HEPES pH 7.5, 50 mM NaCl buffer was added to the wells and mixed thoroughly (final compound concentrations 100, 50, 25, 12.5, 6.25, 3.125, 1.56 μM). This mixture was then dispensed into 8 wells of 10 μL each in a new 384 well plate, one for each time point. The plate was incubated at 4 °C during intact MS. Intact protein LC-MS was performed as previously described,[40] at approximate time points 0, 1, 2, 4, 6, 8 and 12 hours, and deconvoluted as above. The exact times of each measurement were saved with each reading and used for kinetics calculations. Labelling percentages were plotted against time in GraphPad Prism v.10, and curves fitted separately for each replicate using one-phase association, with constraints Y0 = 0 and plateau = highest labelling percentage. Rate constants (kobs, as given by Graphpad Prism calculated K values) were then plotted against concentration in triplicate, and straight lines fitted with constraint Yintercept = 0. Data are presented as mean ± SD, n = 3. Slope values were converted from μM^−1 hour^−1 to M^−1 s^−1 to give kinact/KI values. […]

The target of another test is T2, SspH1 (aa 161–700) (Salmonella typhimurium, UniProt D0ZVG2).
T2 construct: Recombinant IpaH9.8 (21–545) and SspH1 (161–700) were incubated at 0.5 μM; His-tag (N, cleaved yes); made in house; host or cells: E. coli BL21
Described as above. The settings on record: for ligand efficiencies reflecting the reversible binding interactions: SspH1 and 2, from lower bounds on KI. The method, then:
as §1, §2, §3

Another test concerns the target T3, SspH2 (Salmonella typhimurium, UniProt D0ZPH9).
T3 construct: Recombinant SspH1 (aa 161–700) and SspH2 (aa 166–783) were both characterised; His-tag (N, cleaved yes); made in house; host or cells: E. coli BL21
Kind of test: Intact LC-MS labelling dilution series. The settings on record: dilution series 100–6.25 μM, 24 hours at 4 °C. The method, then:
as §1, with “range. […]” for “range.”

T1 sequence (D0ZPH9 166-783): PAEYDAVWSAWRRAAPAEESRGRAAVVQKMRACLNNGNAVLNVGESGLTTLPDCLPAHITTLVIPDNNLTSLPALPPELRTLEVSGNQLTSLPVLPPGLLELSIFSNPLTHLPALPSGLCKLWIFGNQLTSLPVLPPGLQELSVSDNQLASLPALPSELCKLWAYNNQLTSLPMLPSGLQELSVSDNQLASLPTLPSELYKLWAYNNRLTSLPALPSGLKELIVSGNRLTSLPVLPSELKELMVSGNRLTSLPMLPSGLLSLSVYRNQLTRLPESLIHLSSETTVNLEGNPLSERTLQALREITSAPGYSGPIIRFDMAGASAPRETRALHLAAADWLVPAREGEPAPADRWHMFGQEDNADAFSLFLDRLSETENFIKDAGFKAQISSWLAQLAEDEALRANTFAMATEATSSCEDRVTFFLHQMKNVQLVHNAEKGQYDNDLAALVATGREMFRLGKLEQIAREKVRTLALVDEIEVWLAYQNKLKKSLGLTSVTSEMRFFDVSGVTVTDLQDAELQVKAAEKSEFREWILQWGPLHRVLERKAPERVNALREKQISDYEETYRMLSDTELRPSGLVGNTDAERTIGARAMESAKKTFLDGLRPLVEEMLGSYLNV
T2 sequence (D0ZVG2 161-700): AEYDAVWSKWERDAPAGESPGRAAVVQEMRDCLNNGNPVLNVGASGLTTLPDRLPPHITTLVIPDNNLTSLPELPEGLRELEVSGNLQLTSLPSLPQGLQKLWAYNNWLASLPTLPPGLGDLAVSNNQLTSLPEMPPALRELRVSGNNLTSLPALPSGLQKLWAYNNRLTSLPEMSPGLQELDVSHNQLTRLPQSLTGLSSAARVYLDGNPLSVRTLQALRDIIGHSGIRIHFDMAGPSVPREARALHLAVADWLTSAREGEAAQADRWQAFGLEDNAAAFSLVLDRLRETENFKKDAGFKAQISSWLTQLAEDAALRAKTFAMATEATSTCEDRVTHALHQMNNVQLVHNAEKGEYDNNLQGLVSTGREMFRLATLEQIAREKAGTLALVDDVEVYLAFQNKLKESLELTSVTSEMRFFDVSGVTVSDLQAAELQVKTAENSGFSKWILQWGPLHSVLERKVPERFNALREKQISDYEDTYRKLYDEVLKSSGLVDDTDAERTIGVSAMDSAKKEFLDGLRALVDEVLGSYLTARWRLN
T3 sequence (D0ZPH9 166-783): as the sequence (D0ZPH9 166-783) above

For `Cc1cc(-c2nc3ccccc3n2C2CCN(C(=O)CCl)CC2)cc(C)c1O.Cl` [compound 6], at SspH2 (aa 166–783), the Ki was above 50 µM, the kinact/KI was determined as 6.9 M⁻¹ s⁻¹ and the “fold higher kinact/KI with SspH2 than SspH1” value is 4–5 fold. Besides, on SspH1 (aa 161–700), the Ki was above 100 µM, the kinact/KI amounted to 1.2 M⁻¹ s⁻¹ and the “ligand efficiencies reflecting the reversible binding interactions” value is given as 0.19–0.21. Besides, the “labelling of SspH2” value on SspH2 is recorded as “very strong labelling”.
Take `Cl.O=C(CCl)N1CCC(n2c(-c3ccc(C(F)(F)F)cc3)nc3ccccc32)CC1` [compound 7]: at SspH2 (aa 166–783), the Ki is above 50 µM, the kinact/KI came to 6.2 M⁻¹ s⁻¹ and the “fold higher kinact/KI with SspH2 than SspH1” value is reported as 4–5 fold. At SspH1 (aa 161–700), the Ki is above 100 µM, the kinact/KI is 1.4 M⁻¹ s⁻¹ and the “ligand efficiencies reflecting the reversible binding interactions” value is on record as 0.19–0.21. For the same compound, the “labelling of SspH2” value on SspH2 was “very strong labelling”.

A word on the kinact/KI: it is the maximal inactivation rate divided by the concentration that gives half of it.
